Assay results as given in publication PMC7802075 (ACS Infectious Diseases, 2020).
Counter-ions that a name gives are not always drawn. Where a SMILES comes first, the peptide text is derived from it.

Each molecule was assayed against T1, LmjIPCS (inositol phosphorylceramide synthase from L. major) (Leishmania major, UniProt E9AFX2) (assay: biochemical). Conditions: not given.
T1 sequence (E9AFX2 1-338): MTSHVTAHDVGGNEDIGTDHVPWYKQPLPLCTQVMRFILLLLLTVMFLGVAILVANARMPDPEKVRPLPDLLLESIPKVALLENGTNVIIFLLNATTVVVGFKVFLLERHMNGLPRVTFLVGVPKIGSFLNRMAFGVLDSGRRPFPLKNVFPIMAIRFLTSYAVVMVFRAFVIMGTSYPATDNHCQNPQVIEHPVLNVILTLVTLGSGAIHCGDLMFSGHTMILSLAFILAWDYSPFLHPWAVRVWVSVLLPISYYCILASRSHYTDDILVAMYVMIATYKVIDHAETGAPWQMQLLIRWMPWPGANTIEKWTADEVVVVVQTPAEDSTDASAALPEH
Format: biochemical
Design: inhibition: dose or concentration left out as unconfirmed

Row | Molecule | 20mM inhibition LmjIPCS [%]
1 | CC1=CC(=O)c2ccccc2C1=O [MENADIONE] | 43
2 | c1ccc(CN(CC2=NCCN2)c2ccccc2)cc1 [ANTAZOLINE] | 61
3 | COc1cc2nc(N(C)CCCNC(=O)C3CCCO3)nc(N)c2cc1OC (centres unmarked) [ALFLUZOCIN] | 8
4 | CC(C)C[C@H](N)C(=O)N[C@@H](C)C(=O)O [L-LEUCYL-L-ALANINE] (H-Leu-Ala-OH) | 5.46
5 | Nc1c2c(nc3ccccc13)CCCC2 [9-AMINO-1,2,3,4-TETRAHYDROACRIDINE] | 13
6 | Cc1cc(=O)n(-c2ccccc2)n1C [ANTIPYRINE] | 36
7 | CCCCOc1cc(C(=O)NCCN(CC)CC)c2ccccc2n1 [DIBUCAINE] | 63
8 | CCC(=O)O[C@]1(C(=O)CCl)[C@@H](C)C[C@H]2[C@@H]3CCC4=CC(=O)C=C[C@]4(C)[C@@]3(F)[C@@H](O)C[C@@]21C [CLOBETASOL PROPRIONATE] | 17
9 | C[C@H](CCC(=O)[O-])[C@H]1CC[C@H]2[C@@H]3C(=O)C[C@@H]4CC(=O)CC[C@]4(C)[C@H]3CC(=O)[C@]12C.[Na+] [SODIUM DEHYDROCHOLATE] | -6.4
10 | CCn1nc(C(=O)O)c(=O)c2cc3c(cc21)OCO3 [CINOXACIN] | 53
11 | CC1(C)S[C@@H]2[C@H](NC(=O)[C@H](N)c3ccc(O)cc3)C(=O)N2[C@H]1C(=O)O [AMOXICILLIN] | 41
12 | Nc1ncnc2c1ncn2[C@@H]1O[C@H](CO)[C@@H](O)[C@H]1O [ADENOSINE] | 41
13 | CC(=O)[C@H]1CC[C@H]2[C@@H]3CCC4=CC(=O)CC[C@]4(C)[C@H]3CC[C@]12C [PROGESTERONE] | 65
14 | Cc1scc2c1N(C(=O)CN1CCN(C)CC1)c1ccccc1NC2=O [TELENZEPINE] | 35
15 | CO[C@H]1C[C@H](O[C@@H]2/C(C)=C/C[C@@H]3C[C@@H](C[C@]4(CC[C@H](C)[C@@H](C5CCCCC5)O4)O3)OC(=O)[C@@H]3C=C(C)/C(=N/O)[C@H]4OC/C(=C\C=C\[C@@H]2C)[C@]43O)O[C@@H](C)[C@@H]1O [SELAMECTIN] | 45
16 | O=C(/C=C/c1ccc(O)c(O)c1)OCCc1ccccc1 [PHENETHYL CAFFEATE (CAPE)] | 39
17 | CC(C)(C)NCC(O)c1ccccc1Cl (centres unmarked) [TULOBUTEROL] | 51
18 | CCOC(=O)C1=C(O)C(=O)N(Cc2ccccc2)C1 | -1.71
19 | CN1C(=O)CC[C@H]1c1cccnc1 [COTININE] | 34

Same assay, conditions: NINDS set screen, single concentration printed as 20mM

Row | Molecule | 20mM inhibition LmjIPCS [%]
20 | BACITRACIN | 44
21 | CCCNC(=O)NS(=O)(=O)c1ccc(Cl)cc1 [CHLORPROPAMIDE] | 55
22 | CN(Cc1cc(Br)cc(Br)c1N)C1CCCCC1 [BROMHEXINE] | 53
23 | N=C(N)NC(=O)c1nc(Cl)c(N2CCCCCC2)nc1N [N,N-HEXAMETHYLENEAMILORIDE] | 65
24 | CCn1cc(C(=O)O)c(=O)c2cc(F)c(N3CCNCC3)nc21 [ENOXACIN] | 56
25 | CC(=O)Oc1ccccc1C(=O)Oc1ccccc1C(=O)O [DIPLOSALSALATE] | 67
26 | C=C[C@@]1(C)CC(=O)[C@]2(O)[C@@]3(C)[C@@H](O)CCC(C)(C)[C@@H]3[C@H](O)[C@H](OC(C)=O)[C@@]2(C)O1 [COLFORSIN] | 51

Same assay, conditions: NINDS set screen; read-out: inhibition LmjIPCS

Row | Molecule | inhibition [%]
27 | Nc1ccc(S(=O)(=O)Nc2ccc(Cl)nn2)cc1 [SULFACHLORPYRIDAZINE] | 23
28 | CCN(CC)CCNC(=O)c1cc(S(C)(=O)=O)ccc1OC [TIAPRIDE] | -5
29 | COc1c(OC)c2occc2c2oc(=O)ccc12 [PIMPINELLIN] | 18
30 | [H]/N=C(\N/C(=N/[H])Nc1ccc(Cl)cc1)NC(C)C [CHLOROGUANIDE] | 28
31 | C#C[C@]1(O)CC[C@H]2[C@@H]3CCc4cc(O)ccc4[C@H]3CC[C@@]21C [ETHINYL ESTRADIOL] | -11
32 | CN1CC(=O)NC1=N [CREATININE] | 15
33 | O=C(NCO)c1cccnc1 [N-HYDROXYMETHYLNICOTINAMIDE] | 12

Same assay, conditions: read-out: 20mM inhibition LmjIPCS

Row | Molecule | inhibition at 20000 µM [%]
34 | CO[C@H]1[C@H](O)[C@H](O[C@H]2CC[C@@]3(C=O)[C@H](CC[C@@H]4[C@@H]3CC[C@]3(C)[C@@H](C5=CC(=O)OC5)CC[C@]43O)C2)O[C@@H](C)[C@@H]1O [PERUVOSIDE] | 12
35 | CC(=O)OCC(=O)[C@@]1(O)[C@H](OC(C)=O)C[C@H]2[C@@H]3CCC4=CC(=O)C=C[C@]4(C)[C@@]3(F)[C@@H](O)C[C@@]21C [TRIAMCINOLONE DIACETATE] | 10
36 | O=c1c(O)c(-c2ccc(O)c(O)c2)oc2cc(O)cc(O)c12 [QUERCETIN] | 3.45
37 | O=P1(N(CCCl)CCCl)NCCCO1 (centres unmarked) [CYCLOPHOSPHAMIDE] | -0.87
38 | CCC[C@@H]1C[C@@H](C(=O)N[C@@H]([C@H]2O[C@H](SC)[C@H](O)[C@@H](O)[C@H]2O)[C@@H](C)O)N(C)C1 [LINCOMYCIN] | 8.53
39 | CC(=O)[C@H]1CC[C@H]2[C@@H]3C[C@H](C)C4=CC(=O)CC[C@]4(C)[C@H]3[C@@H](O)C[C@]12C [MEDRYSONE] | 14
40 | C[C@]12CC[C@@H]3c4ccc(O)cc4CC[C@H]3[C@@H]1CC[C@@H]2O [ESTRADIOL] | -5.65
41 | NC(=O)C[S+]([O-])C(c1ccccc1)c1ccccc1 (centres unmarked) [MODAFINIL] | 13
42 | O=C1C=CC(=C(c2ccc(O)cc2)c2ccc(O)cc2)C=C1 [ROSOLIC ACID] | -11
43 | CC[C@H]1[C@@H]2C[C@H]3[C@@H]4N(C)c5ccccc5[C@]45C[C@@H]([C@H]2[C@H]5O)N3[C@@H]1O [AJMALINE] | 23
44 | CC(=O)c1c(O)c(C)c(O)c2c1OC1=CC(=O)C(C(C)=O)C(=O)C12C (centres unmarked) [USNIC ACID] | 29
45 | N[C@@H](Cc1ccccc1)C(=O)N[C@@H](Cc1ccc(O)cc1)C(=O)O [PHENYLALANYLTYROSINE] (H-Phe-Tyr-OH) | 7.42
46 | CC1=NS(=O)(=O)c2cc(Cl)ccc2N1 [DIAZOXIDE] | 5
47 | CC[C@H]1OC(=O)C[C@@H](O)[C@H](C)[C@@H](O[C@@H]2O[C@H](C)[C@@H](O[C@H]3C[C@@](C)(O)[C@@H](O)[C@H](C)O3)[C@H](N(C)C)[C@H]2O)[C@@H](CC=O)C[C@@H](C)C(=O)/C=C/C(C)=C/[C@@H]1CO[C@@H]1O[C@H](C)[C@@H](O)[C@@H](OC)[C@H]1OC [TYLOSIN] | 5
48 | C[C@@H]1O[C@@H](O[C@H]2[C@H](Oc3cc(O)c4c(c3)O[C@H](c3ccc(O)cc3)CC4=O)O[C@H](CO)[C@@H](O)[C@@H]2O)[C@H](O)[C@H](O)[C@H]1O [NARINGIN] | 4.67
49 | C[N+](C)(C)CCCCCC[N+](C)(C)C [HEXAMETHONIUM] | -4
50 | O=C(O)c1cc(O)c2cccc(O)c2n1 [X[…]] | 8
51 | CN(N=O)C(=O)N[C@H]1C(O)O[C@H](CO)[C@@H](O)[C@@H]1O (mixture of isomers) [STREPTOZOSIN] | 16
52 | CCS(=O)(=O)CCn1c([N+](=O)[O-])cnc1C [TINIDAZOLE] | 15
53 | CCCCCC1C(=O)CCC1CC(=O)OC (centres unmarked) [DIHYDROJASMONIC ACID, METHYL ESTER] | -2
54 | O=C(O)c1ccccc1Nc1cccc(C(F)(F)F)c1 [FLUFENAMIC ACID] | -16
55 | Cc1ccc(C)c(OCCCC(C)(C)C(=O)O)c1 [GEMFIBROZIL] | -1.79
56 | O=C(O)c1cc(-c2ccc(F)cc2F)ccc1O [DIFLUNISAL] | -4.4
57 | CC(C)[N+]1(C)[C@@H]2CC[C@H]1C[C@@H](OC(=O)C(CO)c1ccccc1)C2 (some centres unmarked) [IPRATROPIUM BROMIDE] | -7

Same assay, conditions: read-out: inhibition LmjIPCS

Row | Molecule | inhibition [%]
58 | O=c1cc(-c2ccccc2)oc2cc(O)c(O)c(O)c12 [BAICALEIN] | 32
59 | CC(C)Cn1c(=O)n(C)c(=O)c2[nH]cnc21 [ISOBUTYLMETHYLXANTHINE] | 14
60 | COc1ccc2c(c1OC)C(=O)O[C@@H]2[C@H]1c2c(cc3c(c2OC)OCO3)CCN1C [NOSCAPINE] | 19
61 | C=CCc1ccc(O)c(OC)c1 [EUGENOL] | 7
62 | CC(NC(C)(C)C)C(=O)c1cccc(Cl)c1 (centres unmarked) [BUPROPION] | 29
63 | COc1cc([C@@H]2c3cc4c(cc3[C@@H](O[C@@H]3O[C@@H]5CO[C@@H](c6cccs6)O[C@H]5[C@H](O)[C@H]3O)[C@H]3COC(=O)[C@H]23)OCO4)cc(OC)c1O [TENIPOSIDE] | 23
64 | COC(=O)[C@@H]1[C@H]2C[C@H]3c4[nH]c5ccccc5c4CCN3C[C@@H]2CC[C@@H]1O [YOHIMBINE HYDROCHLORIDE] | 23
65 | C#C[C@]1(O)CC[C@H]2[C@@H]3CCC4=Cc5oncc5C[C@]4(C)[C@H]3CC[C@@]21C [DANAZOL] | 19
66 | CCn1cc(C(=O)O)c(=O)c2cc(F)c(N3CCNCC3)cc21 [NORFLOXACIN] | 17

Same assay, conditions: screening of NINDS set, sheet Screen 1; read-out: inhibition LmjIPCS

Row | Molecule | inhibition [%]
67 | CC1CC(OC(=O)C(O)c2ccccc2)CC(C)(C)N1C (centres unmarked) [EUCATROPINE] | 8
68 | NCCSSCCN [CYSTAMINE] | 6.34
69 | O=c1oc2cc(O)ccc2s1 [TIOXOLONE] | 3
70 | O=C(O)c1cc2ccccc2[nH]1 [INDOLE-2-CARBOXYLIC ACID] | 8
71 | NC(=O)c1ccc([N+](=O)[O-])cc1Cl [AKLOMIDE] | 4

Same assay, conditions: single concentration 20mM as printed; screening of NINDS set, sheet Screen 1

Row | Molecule | 20mM inhibition LmjIPCS [%]
72 | NC(=O)NO [HYDROXYUREA] | 11
73 | NCCCS(=O)(=O)O [3-AMINOPROPANESULPHONIC ACID] | 3.28
74 | CC1CCC(C(C)C)C(O)C1 (stereo not drawn) [MENTHOL(-)] | 4
